According to patent US9078712B2, “Preformed drug-eluting device to be affixed to an anterior spinal plate” (Warsaw Orthopedic, Inc., priority 2009, dated 2015):

Experiment: Effect of autoclave sterilization on final drug concentration in silicone (FIG. 11)
Format: physicochemical
Settings: starting concentration about 0.0738 wt %, autoclave about 30 minutes
Experimental: FIG. 11 illustrates the effect of sterilization on the final drug concentration, showing the degradation rate versus autoclave time, for example, with a starting concentration of about 0.0738 wt % rifampin in the silicone and running the autoclave about 30 minutes will result in a final concentration of about 0.054 wt % rifampin in the silicone sleeve.
The term “weight percent” or “wt %” means the ratio of the drug weight to the weight of the biocompatible matrix, e.g., the silicone after sterilization, for example, an initial concentration of rifampin of about 0.0738 wt % with about a 30 minute autoclave time will result in a final wt % of about 0.054 in the sterilized product.

## CO[C@H]1/C=C/O[C@@]2(C)Oc3c(C)c(O)c4c(O)c(c(/C=N/N5CCN(C)CC5)c(O)c4c3C2=O)NC(=O)/C(C)=C\C=C\[C@H](C)[C@H](O)[C@@H](C)[C@@H](O)[C@@H](C)[C@H](OC(C)=O)[C@@H]1C [rifampin]
  final concentration of rifampin in the silicone after autoclave sterilization: about 0.054 wt %
